PubChem BioAssay (NCI)
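The compound was tested at five concentrations on cells cultured in 96-well plates, with a 48-hour exposure period. Abbreviation: GI50, concentration required for 50% inhibition of growth. TGI: total growth inhibition.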

Experiments:
Test in all cases: DTP human tumour cell line panel, 48 h
BT-549 breast = tested on: BT-549 breast
786-0 renal = tested on: 786-0 renal
MDA-MB-435 = tested on: MDA-MB-435
HCT-116 colon = tested on: HCT-116 colon
TK-10 renal = tested on: TK-10 renal
HOP-92 NSCLC = tested on: HOP-92 NSCLC
CAKI-1 renal = tested on: CAKI-1 renal

SMILES	GI50 (BT-549 breast)	TGI (BT-549 breast)	GI50 (786-0 renal)	TGI (786-0 renal)	GI50 (MDA-MB-435)	TGI (MDA-MB-435)	GI50 (HCT-116 colon)	TGI (HCT-116 colon)	GI50 (TK-10 renal)	TGI (TK-10 renal)	GI50 (HOP-92 NSCLC)	TGI (HOP-92 NSCLC)	GI50 (CAKI-1 renal)	TGI (CAKI-1 renal)
ClCc1ccc(-c2ccc(Cn3cnc4c(Cl)nc(Cl)nc43)cc2)cc1	3.71 µM	15.5 µM	6.43 µM	19.6 µM	2.74 µM	9.37 µM	1.58 µM	2.92 µM	2.11 µM	4.42 µM	1.98 µM	5.56 µM	1.84 µM	4.32 µM
NC(CNO)C(=O)O (configuration not stated)	–	> 100 µM	–	> 100 µM	–	> 100 µM	–	> 100 µM	–	> 100 µM	–	> 100 µM	–	> 100 µM
COc1ccc(N(CC(=O)NCCC[Te]c2ccccc2)C(=O)CCSC2=C(C)C(=O)c3ccccc3C2=O)cc1	0.508 µM	3.43 µM	2.32 µM	4.91 µM	2.67 µM	8.11 µM	0.406 µM	1.72 µM	3.25 µM	8.01 µM	1.72 µM	4.44 µM	2.25 µM	6.24 µM
COc1cc(/C=C/C(=O)c2ccc(Nc3ncnc4ccccc34)cc2)cc(OC)c1	3.34 µM	11.9 µM	4.2 µM	14.5 µM	1.8 µM	4.14 µM	0.346 µM	1.17 µM	8.4 µM	24.4 µM	1.32 µM	52.7 µM	19.3 µM	> 100 µM
S=c1nc2[nH]ncc2c(N/N=C/c2ccccc2)[nH]1	> 100 µM	> 100 µM	> 100 µM	> 100 µM	> 100 µM	> 100 µM	87.9 µM	> 100 µM	> 100 µM	> 100 µM	> 100 µM	> 100 µM	31.9 µM	> 100 µM
C=C1C(=O)O[C@H]2[C@H]1CC/C(Cn1cc(Cn3ccc4ccccc43)nn1)=C\CC[C@@]1(C)O[C@@H]21	1.38 µM	2.69 µM	1.59 µM	3.12 µM	1.7 µM	3.39 µM	0.762 µM	2.15 µM	1.65 µM	3.05 µM	1.01 µM	2.29 µM	1.15 µM	2.38 µM
Cc1cc(C)c(O)c(Cc2cccc(Cc3cc(C)cc(C)c3O)c2O)c1	–	> 100 µM	–	> 100 µM	–	> 100 µM	–	> 100 µM	–	> 100 µM	–	> 100 µM	–	> 100 µM
Cn1ncc2c(/N=C/c3cccs3)[nH]c(=S)nc21	33.2 µM	> 91.3 µM	60.1 µM	> 100 µM	29.9 µM	> 72.2 µM	33.9 µM	98 µM	40.6 µM	> 85.2 µM	61.2 µM	> 100 µM	33.4 µM	> 100 µM
O=C(Nc1n[nH]c2nc(-c3ccco3)ccc12)C1CC1	> 25 µM	> 25 µM	> 25 µM	> 25 µM	> 25 µM	> 25 µM	> 25 µM	> 25 µM	> 25 µM	> 25 µM	> 7.9 µM	> 7.9 µM	> 25 µM	> 25 µM
COc1ccc(-c2cc(=O)c3c(OC)c(OC)c(OC)c(OC)c3o2)cc1OC	–	> 100 µM	–	> 100 µM	–	> 100 µM	–	> 100 µM	–	> 100 µM	–	74.4 µM	–	> 100 µM
N#CC(=S)Nc1ccc(Cl)c(Cl)c1	–	> 55.1 µM	–	> 66.9 µM	–	> 70.5 µM	–	> 50 µM	–	> 84.6 µM	–	9.59 µM	–	55.1 µM
CCOC(=O)c1c(-c2ccccc2)[n+](=O)c2ccc(Cl)cc2n1[O-]	3.87 µM	15.7 µM	6.98 µM	19.9 µM	10.2 µM	26.4 µM	3.72 µM	16.4 µM	4.55 µM	23.6 µM	1.93 µM	4.91 µM	3.82 µM	13.2 µM
CCCCCCCC/C=C/CCCCCCCC1=NC(C)(C)CN1C(C)C	1.58 µM	3.74 µM	1.58 µM	2.93 µM	1.6 µM	3.01 µM	1.4 µM	2.7 µM	1.45 µM	2.79 µM	0.819 µM	2.6 µM	1.16 µM	2.38 µM
Clc1cc(Cl)c(Cl)c(-c2nc(-c3cccnc3)cs2)c1	20.6 µM	70.2 µM	12.9 µM	29.8 µM	3.39 µM	29.2 µM	5.3 µM	> 100 µM	20.5 µM	56.6 µM	15.4 µM	48.1 µM	7.43 µM	78.7 µM
O=C(O)CC(Nc1ccccc1)C(=O)O (configuration not stated)	–	> 100 µM	–	> 100 µM	–	> 100 µM	–	> 100 µM	–	> 100 µM	–	> 100 µM	–	> 100 µM
CC#CS(=O)(=O)c1ccccc1	–	20.8 µM	–	16.4 µM	–	22.9 µM	–	17.6 µM	–	17.4 µM	–	6.96 µM	–	2.36 µM
